This experiment deals with Leptosphaeria nodorum (LEPTNO). Briefly: Fungitoxicity of copper-hydrazone mixtures of different ratios towards Leptosphaeria nodorum (Example 35, Table 11). It counts as cell-based. The note with it: Parastagonospora nodorum. The method, then:
In vitro fungitoxicity assays against LEPTNO were conducted using the copper-minus medium described in Example 26. Mixtures containing hydrazone compound 16 at 200 nM and CuCl2 at 0.2 μM (1:1 molar ratio), 0.8 μM (1:4 ratio), 12.5 μM (1:62.5 ratio) and 200 μM (1:1000 ratio) were prepared in copper-minus medium. Two-fold dilution series of these mixtures were then prepared in 100 μL aliquots of copper-minus medium in flat-bottomed 96-well microtiter plates. A suspension of LEPTNO spores in copper-minus medium at 2×10^5 spores per mL was prepared as in Example 26. Microtiter plates were inoculated with 100 μL of the spore suspension and the plates were incubated at 25° C. for 72 h before assessing fungal growth by measuring light scattering in a NepheloStar plate reader.
Growth inhibition was determined by comparing growth in the presence of copper-hydrazone mixture with growth in control wells lacking the copper-hydrazone mixture. EC50 values were calculated from dose-response curves, and are expressed as the amounts of hydrazone or copper in each test mixture at the rates providing 50% inhibition of growth as compared to a control lacking the copper-hydrazone mixture.

pEC50: −log10 of the molar value. Read-outs that look alike come from different tables or passages of the source.

Regarding `O=C(N/N=C/c1cc(Cl)cc(Cl)c1O)c1ccccc1` [Example 16], the pEC50 was < 5.49 (Hydrazone without CuCl2, read-out: Hydrazone EC50); 7.14 (Hydrazone:Cu ratio 1 to 1, read-out: Hydrazone EC50 (amount of hydrazone in mixture at EC50)); 7.37 (Hydrazone:Cu ratio 1 to 4, read-out: Hydrazone EC50 (amount of hydrazone in mixture at EC50)); 7.55 (Hydrazone:Cu ratio 1 to 62.5, read-out: Hydrazone EC50 (amount of hydrazone in mixture at EC50)); 7.85 (Hydrazone:Cu ratio 1 to 1000, read-out: Hydrazone EC50 (amount of hydrazone in mixture at EC50)).

The values are drawn from patent US20120010075A1 (priority 2009, published 2012).
